Tests used:
Test in all cases: Kinase panel (Cerep)
Format in all cases: biochemical
AurA/Aur2 kinase (h) = target: T1, AurA/Aur2 kinase (h) (Homo sapiens, UniProt O14965); conditions: read-out: % inhibition at 10 µM by MC3353, AurA/Aur2 kinase (h), ATP 10 μM
T1 construct: purchased Eurofins Cerep
Protocol: (§1) The test compound, reference compound or water (control) were mixed with the enzyme (for the exact amount see table below) in the appropriate buffer. Thereafter, the reaction was initiated by adding the required amount of the appropriate substrate and of ATP, and the mixture is incubated at room temperature (variable reaction time, see table below). For control basal measurements, the enzyme was omitted from the reaction mixture. Following incubation, the reaction was stopped by adding 13 mM EDTA. After 5 min, the proper antibody labelled with europium chelate was added. After 60 more min, the fluorescence transfer was measured at λex=337 nm, λem=620 nm and λem=665 nm using a microplate reader (Envision, Perkin Elmer). The enzyme activity was determined by dividing the signal measured at 665 nm by that measured at 620 nm (ratio). The results are expressed as a percent inhibition of the control enzyme activity.

ERK2 (h) (P42mapk) = target: T2, ERK2 (h) (P42mapk) (Homo sapiens, UniProt P28482); conditions: read-out: % inhibition at 10 µM by MC3353, ERK2 (h) (P42mapk), ATP 10 μM
T2 construct: purchased Eurofins Cerep
Protocol: as §1

FGFR1 kinase (h) = target: T3, FGFR1 kinase (h) (Homo sapiens, UniProt P11362); conditions: read-out: % inhibition at 10 µM by MC3353, FGFR1 kinase (h), ATP 100 μM
T3 construct: purchased Eurofins Cerep
Protocol: as §1

FGFR2 kinase (h) = target: T4, FGFR2 kinase (h) (Homo sapiens, UniProt P21802); conditions: read-out: % inhibition at 10 µM by MC3353, FGFR2 kinase (h), ATP 10 μM
T4 construct: purchased Eurofins Cerep
Protocol: as §1

GSK3beta (h) = target: T5, GSK3beta (h) (Homo sapiens, UniProt P49841); conditions: read-out: % inhibition at 10 µM by MC3353, GSK3beta (h), ATP 10 μM
T5 construct: purchased Eurofins Cerep
Protocol: as §1

IRK (h) (InsR) = target: T6, IRK (h) (InsR) (Homo sapiens, UniProt P06213); conditions: read-out: % inhibition at 10 µM by MC3353, IRK (h) (InsR), ATP 30 μM
T6 construct: purchased Eurofins Cerep
Protocol: as §1

Lck kinase (h) = target: T7, Lck kinase (h) (Homo sapiens, UniProt P06239); conditions: read-out: % inhibition at 10 µM by MC3353, Lck kinase (h), ATP 10 μM
T7 construct: purchased Eurofins Cerep
Protocol: as §1

MARK1 (h) = target: T8, MARK1 (h) (Homo sapiens, UniProt Q9P0L2); conditions: read-out: % inhibition at 10 µM by MC3353, MARK1 (h), ATP 1 μM
T8 construct: purchased Eurofins Cerep
Protocol: as §1

MNK2 (h) = target: T9, MNK2 (h) (Homo sapiens, UniProt Q9HBH9); conditions: read-out: % inhibition at 10 µM by MC3353, MNK2 (h), ATP 100 μM
T9 construct: purchased Eurofins Cerep
Protocol: as §1

NEK2 (h) = target: T10, NEK2 (h) (Homo sapiens, UniProt P51955); conditions: read-out: % inhibition at 10 µM by MC3353, NEK2 (h), ATP 10 μM
T10 construct: purchased Eurofins Cerep
Protocol: as §1

PDK1 (h) = target: T11, PDK1 (h) (Homo sapiens, UniProt O15530); conditions: read-out: % inhibition at 10 µM by MC3353, PDK1 (h), ATP 10 μM
T11 construct: purchased Eurofins Cerep
Protocol: as §1

Pim2 kinase (h) = target: T12, Pim2 kinase (h) (Homo sapiens, UniProt Q9P1W9); conditions: read-out: % inhibition at 10 µM by MC3353, Pim2 kinase (h), ATP 3 μM
T12 construct: purchased Eurofins Cerep
Protocol: as §1

RAF-1 kinase (h) = target: T13, RAF-1 kinase (h) (Homo sapiens, UniProt P04049); conditions: read-out: % inhibition at 10 µM by MC3353, RAF-1 kinase (h), ATP 10 μM
T13 construct: purchased Eurofins Cerep
Protocol: as §1

ROCK1 (h) = target: T14, ROCK1 (h) (Homo sapiens, UniProt Q13464); conditions: read-out: % inhibition at 10 µM by MC3353, ROCK1 (h), ATP 1 μM
T14 construct: purchased Eurofins Cerep
Protocol: as §1

SGK1 (h) = target: T15, SGK1 (h) (Homo sapiens, UniProt O00141); conditions: read-out: % inhibition at 10 µM by MC3353, SGK1 (h), ATP 10 μM
T15 construct: purchased Eurofins Cerep
Protocol: as §1

Src kinase (h) = target: T16, Src kinase (h) (Homo sapiens, UniProt P12931); conditions: read-out: % inhibition at 10 µM by MC3353, Src kinase (h), ATP 5 μM
T16 construct: purchased Eurofins Cerep
Protocol: as §1

T5 sequence (P49841 whole entry): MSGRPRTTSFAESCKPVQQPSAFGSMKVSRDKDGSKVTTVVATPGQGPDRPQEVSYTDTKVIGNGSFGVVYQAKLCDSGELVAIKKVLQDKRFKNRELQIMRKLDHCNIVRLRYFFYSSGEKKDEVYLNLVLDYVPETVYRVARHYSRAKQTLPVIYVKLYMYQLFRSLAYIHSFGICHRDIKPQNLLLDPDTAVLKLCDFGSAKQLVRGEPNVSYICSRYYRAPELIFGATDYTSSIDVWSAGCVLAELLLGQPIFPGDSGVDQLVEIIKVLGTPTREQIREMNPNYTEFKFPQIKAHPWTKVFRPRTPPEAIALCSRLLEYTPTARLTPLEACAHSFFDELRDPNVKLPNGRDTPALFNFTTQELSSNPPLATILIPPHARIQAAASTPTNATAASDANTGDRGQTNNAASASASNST
T12 sequence (Q9P1W9 whole entry): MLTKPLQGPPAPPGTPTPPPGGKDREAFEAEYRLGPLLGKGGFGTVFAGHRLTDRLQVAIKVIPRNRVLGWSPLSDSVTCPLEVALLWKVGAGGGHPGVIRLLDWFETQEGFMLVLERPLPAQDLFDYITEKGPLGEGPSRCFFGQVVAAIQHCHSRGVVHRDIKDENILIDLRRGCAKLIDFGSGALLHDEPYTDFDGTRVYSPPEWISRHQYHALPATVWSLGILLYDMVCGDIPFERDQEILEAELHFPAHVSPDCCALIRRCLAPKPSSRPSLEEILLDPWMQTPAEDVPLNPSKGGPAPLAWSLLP
T8 sequence (Q9P0L2 whole entry): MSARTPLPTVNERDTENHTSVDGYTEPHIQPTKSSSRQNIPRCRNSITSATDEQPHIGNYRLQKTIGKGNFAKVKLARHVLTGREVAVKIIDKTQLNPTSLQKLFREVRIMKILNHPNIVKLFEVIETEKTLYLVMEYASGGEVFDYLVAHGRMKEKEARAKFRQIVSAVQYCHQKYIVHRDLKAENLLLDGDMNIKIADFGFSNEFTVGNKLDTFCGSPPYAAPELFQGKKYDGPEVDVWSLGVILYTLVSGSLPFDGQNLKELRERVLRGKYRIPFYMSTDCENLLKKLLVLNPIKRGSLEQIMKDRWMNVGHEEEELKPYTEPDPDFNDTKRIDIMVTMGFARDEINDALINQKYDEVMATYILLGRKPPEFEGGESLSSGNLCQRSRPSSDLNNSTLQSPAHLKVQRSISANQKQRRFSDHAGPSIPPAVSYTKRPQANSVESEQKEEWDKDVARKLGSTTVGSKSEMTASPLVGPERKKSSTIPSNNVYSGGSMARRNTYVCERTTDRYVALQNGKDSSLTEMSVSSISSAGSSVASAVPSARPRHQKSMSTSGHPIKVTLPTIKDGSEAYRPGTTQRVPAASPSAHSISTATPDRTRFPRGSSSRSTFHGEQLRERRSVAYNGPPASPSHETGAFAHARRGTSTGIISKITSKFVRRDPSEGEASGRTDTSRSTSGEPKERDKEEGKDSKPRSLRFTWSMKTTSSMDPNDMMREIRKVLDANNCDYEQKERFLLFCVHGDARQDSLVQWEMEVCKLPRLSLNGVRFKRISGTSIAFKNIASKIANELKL
T15 sequence (O00141 whole entry): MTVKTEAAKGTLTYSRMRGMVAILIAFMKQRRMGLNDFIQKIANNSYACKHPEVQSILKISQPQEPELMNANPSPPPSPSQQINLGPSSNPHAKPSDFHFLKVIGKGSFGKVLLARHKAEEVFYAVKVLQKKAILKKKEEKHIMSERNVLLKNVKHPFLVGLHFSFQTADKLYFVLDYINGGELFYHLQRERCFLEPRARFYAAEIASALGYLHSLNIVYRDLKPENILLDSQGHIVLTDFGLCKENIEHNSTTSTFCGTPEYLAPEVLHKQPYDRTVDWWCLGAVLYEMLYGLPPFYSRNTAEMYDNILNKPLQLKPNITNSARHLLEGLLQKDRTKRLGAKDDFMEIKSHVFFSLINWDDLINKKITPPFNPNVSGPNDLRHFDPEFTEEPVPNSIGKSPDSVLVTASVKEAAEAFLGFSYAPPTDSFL
T9 sequence (Q9HBH9 whole entry): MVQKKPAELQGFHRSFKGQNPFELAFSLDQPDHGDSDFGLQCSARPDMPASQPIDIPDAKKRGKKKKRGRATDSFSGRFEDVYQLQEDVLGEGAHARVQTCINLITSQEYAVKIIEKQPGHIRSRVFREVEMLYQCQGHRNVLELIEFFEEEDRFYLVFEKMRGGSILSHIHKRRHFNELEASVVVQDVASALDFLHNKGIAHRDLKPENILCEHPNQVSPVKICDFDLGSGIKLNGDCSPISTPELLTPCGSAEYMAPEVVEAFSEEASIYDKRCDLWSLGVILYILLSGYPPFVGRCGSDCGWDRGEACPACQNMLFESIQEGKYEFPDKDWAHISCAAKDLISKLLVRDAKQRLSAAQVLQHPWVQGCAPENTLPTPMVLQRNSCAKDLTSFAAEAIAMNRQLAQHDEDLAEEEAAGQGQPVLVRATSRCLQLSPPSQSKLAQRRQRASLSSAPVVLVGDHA
T1 sequence (O14965 whole entry): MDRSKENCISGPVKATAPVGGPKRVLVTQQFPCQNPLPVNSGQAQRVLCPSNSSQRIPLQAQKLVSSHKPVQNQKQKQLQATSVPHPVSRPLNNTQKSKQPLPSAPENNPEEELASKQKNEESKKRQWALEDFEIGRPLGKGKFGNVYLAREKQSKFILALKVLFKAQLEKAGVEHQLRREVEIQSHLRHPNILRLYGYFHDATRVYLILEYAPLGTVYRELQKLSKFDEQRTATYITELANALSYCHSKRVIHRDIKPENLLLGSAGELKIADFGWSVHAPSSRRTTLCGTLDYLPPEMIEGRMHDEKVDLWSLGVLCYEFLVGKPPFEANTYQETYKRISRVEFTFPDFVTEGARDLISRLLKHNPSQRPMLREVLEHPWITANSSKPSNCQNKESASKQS
T4 sequence (P21802 22-821): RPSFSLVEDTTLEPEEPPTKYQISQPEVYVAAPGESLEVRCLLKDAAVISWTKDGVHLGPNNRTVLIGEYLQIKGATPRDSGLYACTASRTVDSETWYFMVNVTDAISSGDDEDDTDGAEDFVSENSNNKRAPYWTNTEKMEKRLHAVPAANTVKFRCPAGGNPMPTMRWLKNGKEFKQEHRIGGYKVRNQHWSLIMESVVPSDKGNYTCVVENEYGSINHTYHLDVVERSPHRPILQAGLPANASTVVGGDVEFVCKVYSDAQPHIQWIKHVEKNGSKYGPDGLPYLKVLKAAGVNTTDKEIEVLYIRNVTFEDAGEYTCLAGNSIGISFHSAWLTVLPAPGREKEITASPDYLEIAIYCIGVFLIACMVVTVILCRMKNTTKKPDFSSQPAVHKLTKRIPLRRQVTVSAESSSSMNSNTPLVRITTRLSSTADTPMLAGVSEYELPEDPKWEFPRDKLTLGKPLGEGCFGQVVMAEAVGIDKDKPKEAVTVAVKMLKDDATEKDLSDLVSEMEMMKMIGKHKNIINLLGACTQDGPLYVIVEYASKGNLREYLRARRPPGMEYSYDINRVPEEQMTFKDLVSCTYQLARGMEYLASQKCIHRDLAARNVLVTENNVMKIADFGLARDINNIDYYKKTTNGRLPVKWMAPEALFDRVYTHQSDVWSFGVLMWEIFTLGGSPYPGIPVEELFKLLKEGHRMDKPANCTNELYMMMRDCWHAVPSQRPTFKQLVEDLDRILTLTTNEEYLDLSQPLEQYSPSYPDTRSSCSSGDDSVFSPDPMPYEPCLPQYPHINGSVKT
T7 sequence (P06239 whole entry): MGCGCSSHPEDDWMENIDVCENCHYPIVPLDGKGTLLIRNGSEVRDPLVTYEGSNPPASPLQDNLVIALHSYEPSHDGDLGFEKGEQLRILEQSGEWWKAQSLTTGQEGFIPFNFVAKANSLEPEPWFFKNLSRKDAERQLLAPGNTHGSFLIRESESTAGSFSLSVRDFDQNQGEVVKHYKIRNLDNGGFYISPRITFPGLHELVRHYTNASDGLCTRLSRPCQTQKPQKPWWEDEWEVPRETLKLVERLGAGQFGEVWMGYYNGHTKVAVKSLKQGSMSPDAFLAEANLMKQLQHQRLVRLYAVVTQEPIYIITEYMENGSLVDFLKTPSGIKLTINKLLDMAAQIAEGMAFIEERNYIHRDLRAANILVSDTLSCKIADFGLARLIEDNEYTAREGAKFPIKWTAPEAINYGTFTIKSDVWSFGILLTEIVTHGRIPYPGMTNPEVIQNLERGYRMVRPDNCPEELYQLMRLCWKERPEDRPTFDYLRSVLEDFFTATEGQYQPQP
T10 sequence (P51955 whole entry): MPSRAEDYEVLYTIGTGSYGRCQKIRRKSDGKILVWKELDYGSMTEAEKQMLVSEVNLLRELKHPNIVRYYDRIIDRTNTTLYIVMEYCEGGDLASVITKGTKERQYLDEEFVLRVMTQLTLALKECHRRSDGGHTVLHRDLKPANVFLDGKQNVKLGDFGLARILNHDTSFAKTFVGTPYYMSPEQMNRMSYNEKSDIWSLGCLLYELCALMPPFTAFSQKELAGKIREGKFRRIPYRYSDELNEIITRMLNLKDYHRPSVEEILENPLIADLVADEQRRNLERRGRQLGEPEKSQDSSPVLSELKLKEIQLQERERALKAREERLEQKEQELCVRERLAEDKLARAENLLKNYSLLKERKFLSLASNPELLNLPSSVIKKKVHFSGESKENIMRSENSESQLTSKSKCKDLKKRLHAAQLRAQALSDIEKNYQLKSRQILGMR
T2 sequence (P28482 whole entry): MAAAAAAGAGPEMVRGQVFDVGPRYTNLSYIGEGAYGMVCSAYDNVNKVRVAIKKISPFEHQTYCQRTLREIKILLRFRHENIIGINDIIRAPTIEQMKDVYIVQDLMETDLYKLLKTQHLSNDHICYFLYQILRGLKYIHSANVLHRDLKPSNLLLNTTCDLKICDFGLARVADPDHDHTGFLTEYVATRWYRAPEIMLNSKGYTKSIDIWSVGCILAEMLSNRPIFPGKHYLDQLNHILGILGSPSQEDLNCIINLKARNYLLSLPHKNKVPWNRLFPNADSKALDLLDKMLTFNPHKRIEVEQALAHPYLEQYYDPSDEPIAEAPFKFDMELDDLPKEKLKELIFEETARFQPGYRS

O=C(Nc1ccc(NC(=O)c2ccc(Nc3ccnc4ccccc34)cc2)cc1)OCc1ccccc1 [MC3353, Benzyl (4-(4-(quinolin-4-ylamino)benzamido)phenyl)carbamate]
inhibition at 10 µM (AurA/Aur2 kinase (h)): 4%
inhibition at 10 µM (ERK2 (h) (P42mapk)): -21%
inhibition at 10 µM (FGFR1 kinase (h)): -200%
inhibition at 10 µM (FGFR2 kinase (h)): 19%
inhibition at 10 µM (GSK3beta (h)): -29%
inhibition at 10 µM (IRK (h) (InsR)): 38%
inhibition at 10 µM (Lck kinase (h)): 4%
inhibition at 10 µM (MARK1 (h)): -116%
inhibition at 10 µM (MNK2 (h)): 21%
inhibition at 10 µM (NEK2 (h)): -9%
inhibition at 10 µM (PDK1 (h)): -149%
inhibition at 10 µM (Pim2 kinase (h)): 20%
inhibition at 10 µM (RAF-1 kinase (h)): 60%
inhibition at 10 µM (ROCK1 (h)): -51%
inhibition at 10 µM (SGK1 (h)): 29%
inhibition at 10 µM (Src kinase (h)): 57%

Reference: article PMC6501426 (Clinical Epigenetics, 2019)
